Measured values: patent US6664241B2, “Water-soluble amide derivatives of polyene macrolides and preparation and uses thereof” (Micrologix Biotech Inc., priority 2000, dated 2003)
≈ marks a conversion by molar mass, not a printed value. Read-outs that look alike come from different tables or passages of the source.

Legend:
[1] = human, in vivo; cited from earlier work
[2] = rats; cited from earlier work
[3] = test system: C. albicans; assay: Minimum Inhibitory Concentrations (MICs) against C. albicans, NCCLS M27-A broth dilution; assay type: cell-based
Procedure: For each compound synthesized, Minimum Inhibitory Concentrations (MICs) against C. albicans were determined as described in Reference Method for Broth Dilution Antifungal Susceptibility Testing of Yeasts, Approved Standard, NCCLS document M27-A (ISBN 1-56238-328-0), NCCLS, 940 West Valley Road, Suite 1400, Wayne, Pa. 19087, 1997.

[4] = Maximum non-lethal dose (NLD), single intravenous dose in mice; assay type: in vivo, Swiss-Webster male mice; conditions: test compounds as aspartate salts in 5% mannitol, AmB as FUNGIZONE
Procedure: (§1) A variety of the compounds synthesized as described in Section 5, supra, were tested in various in vivo assays, as described below. The results of the various assays are provided in TABLE 3, presented at the end of this section. In all of the in vivo assays described, the test compounds, in the form of the aspartate salts, were formulated in an aqueous vehicle (5% mannitol in sterile water; OSMITROL, Baxter Healthcare, Deerfield, Ill.), followed by appropriate dilutions. The formulations were prepared fresh before dosing.
(§2) AmB and AME were also tested for comparison. For AmB, the commercially available FUNGIZONE (Bristol-Meyers Squibb Co.) was used. Reported values are based upon the weight of the AmB active ingredient, not on the basis of the weight of the FUNGIZONE powder. AME was formulated in OSMITROL as described for the test compounds.
Maximum non-lethal dose (NLD) data were obtained for selected compounds. A single intravenous dose was administered to each of four mice (Swiss-Webster male mice; Simonsen Laboratories, Gilroy, Calif.) in several groups. The doses selected were based upon the NLDs of compounds of similar structures. After review of findings, higher or lower doses were administered and a NLD was determined. The results are tabulated in TABLE 3, below (NLD Acute Mice). The values for AmB and AME are provided for comparison

[5] = Ascending single-dose nephrotoxicity study in rabbits; assay type: in vivo, Female New Zealand white rabbits; conditions: ascending single intravenous infusion doses, urine volume, BUN, creatinine
Procedure: as §1
AmB and AME were also tested for comparison. For AmB, the commercially available FUNGIZONE (Bristol-Meyers Squibb Co.) was used. […]
Various polyene macrolide amide derivatives of the invention were evaluated to determine the intravenous dose of administered compound that produces nephrotoxicity in rabbits. Nephrotoxicity was monitored by measuring urine volume and blood urine nitrogen (BUN) and creatinine. […]
Ascending single doses were administered by intravenous infusion into an ear vein at a rate of 0.6 mL/min. […] Body weights were recorded before each dose, as well as 2 days after the last dose. Blood samples were collected from the rabbits two days prior to the first dose (study day −2) and approximately 24 hr after each dose and analyzed for BUN and creatinine. […]

[6] = Two week range-finding toxicity study in mice; assay type: in vivo, CD-1 mice; conditions: for NOAEL at 2 week: both sexes, CD-1, mouse, in vivo, iv
Procedure: as §1, §2
Various polyene macrolide amide derivatives of the invention were evaluated to characterize their potential toxicity when administered subchronically by intravenous injection.
CD-1® mice (Charles River Laboratories, Portage, Mich.) were acclimated to laboratory conditions for at least 5 days before the start of dosing. During the acclimation period, the general condition of the mice was evaluated, and those considered healthy were used. The mice were randomly assigned to treatment groups using a stratified body weight regimen. Each treatment group consisted of 3 male and 3 female mice. The mice were housed in a room with a controlled environment and provided rodent chow and water ad libitum.
On the first day of dosing, the mice were approximately 7 to 9 weeks old and weighed 22 to 30 g. Doses were administered by intravenous injection once daily on study days 1 to 5 and 8 to 12. Dosages were selected based upon data from efficacy and toxicology studies, and ranged from 1.25 to 30 mg/kg/day. Clinical observations were recorded 0.5 hr after dosing on days 1, 3, 5, 8, 10, 12 and 15, and on any day a change was observed. Body weights were recorded prior to dosing and on study days 8 and 12, and on study day 15 at the completion of the in-life phase of the study.
Animals that were found in a moribund/deteriorating clinical state were euthanized (animal designated killed in extremis) by inhalation of CO2. The day of death for any animal found dead or killed in extremis was recorded. Any animal that died prematurely was removed from the study without further processing.
One day after completion of dosing (study day 16), all surviving mice were euthanized by inhalation of CO2. Their kidneys were preserved for histopathologic examination. The maximum no-observed-adverse-effect level (NOAEL) was determined on the basis of clinical and histopathologic findings. The values for AmB and AME are provided for comparison.

[7] = test system: C. albicans; assay: 7 day kidney bioburden evaluation in neutropenic mice challenged with C. albicans; assay type: in vivo, Swiss-Webster mice; conditions: intraperitoneally once daily for 7 days, 50% of animals with 2 log10 reduction in kidney CFU; for ED50: Candida albicans, ip, 168 h
Procedure: as §1, §2
Various polyene macrolide amide derivatives of the invention were evaluated for their protective effect when administered intraperitoneally once daily for 7 days to neutropenic mice challenged with live C. albicans.
Swiss-Webster mice (Simonsen Laboratories, Gilroy, Calif.) were made neutropenic by intravenous administration of 5-fluorouracil (150 mg/kg) on study day −1. On study day 0, all mice received by intravenous injection a single inoculum (0.2 mL) containing as estimated 5.0×10^4 CFU of C. albicans. The day of inoculation was designated as study day 0. Beginning the day after infection (on study day 1), mice were treated intraperitoneally with vehicle alone or formulated test compound, once daily for 7 consecutive days.
(§3) The mice were observed daily from study day 1 through study day 8 (1 day after the last dose). Mice found dead or euthanized in extremis were removed from the study without further processing. Surviving mice were euthanized by inhalation of CO2 on study day 8 and both kidneys from each mouse were removed. Each pair of removed kidneys was homogenized in 3 mL of ice-cold PBS containing 10% glycerol. A portion of each homogenate was used to determine log10 CFU per kidney using SDA plates (48 hours of incubation at 30° C.). Kidney log10 CFU data were analyzed using a t-test. The criterion for a statistically significant response was set at p<0.01.
(§4) For comparison, the results for AmB and AME are also provided. Efficacy was defined for individual animals as a greater than 2 log10 reduction in kidney CFU relative to the mean vehicle control value.

[8] = dogs; cited from earlier work
[9] = test system: C. albicans; assay: 5 day kidney bioburden evaluation in immunocompetent mice challenged with C. albicans; assay type: in vivo, Swiss-Webster mice; conditions: intraperitoneally once daily for 5 days, immunocompetent mice, C. albicans, 50% of animals with 2 log10 reduction in kidney CFU; for ED50: Candida albicans, ip, 120 h, read-out: ED50 mice 5 day
Procedure: as §1, §2
Various polyene macrolide amide derivatives of the invention were evaluated for their protective effect when administered intraperitoneally once daily for 5 days to immunocompetent mice challenged with live C. albicans.
C. albicans was grown on Sabouraud dextrose agar (SDA) plates for 48 hr. Colonies were harvested and washed twice by centrifugation in phosphate-buffered saline (PBS). The washed pellets were resuspended in PBS and diluted to achieve the desired number of fungi per milliliter. A portion of the inoculum was plated on SDA plates to determine the colony-forming units (CFU) per milliliter.
Swiss-Webster mice (Simonsen Laboratories, Gilroy, Calif.) were administered by intravenous injection a single inoculum (0.2 mL) containing as estimated 2.0×10^5 CFU of C. albicans. The day of inoculation was designated as study day 0. Beginning three days after injection, mice were treated intraperitoneally with vehicle alone or formulated test compound once daily for 5 consecutive days.
as §3, with “day 0” for “day 1”, “day 10 (3 days” for “day 8 (1 day”, “day 10” for “day 8”
as §4

[10] = Candida albicans, read-out: MIC

COC(=O)[C@H]1[C@@H]2C[C@@H](O[C@@H]3O[C@H](C)[C@@H](O)[C@H](N)[C@@H]3O)/C=C/C=C/C=C/C=C/C=C/C=C/C=C/[C@H](C)[C@@H](O)[C@@H](C)[C@H](C)OC(=O)C[C@H](O)C[C@H](O)CC[C@@H](O)[C@H](O)C[C@H](O)C[C@](O)(C[C@@H]1O)O2 [AME, amphotericin B methyl ester, reference compound]
adverse effects in clinical trial [1]: many patients developed progressive neurological dysfunction associated with white matter degeneration
acute, nephro- and hepato-toxicity versus amphotericin B [2]: lower acute, nephro- and hepato-toxicity than amphotericin B
MIC [3]: 0.75 µg/mL (≈ 0.799 µM)
NLD acute mice [4]: 60 mg/kg
NOAEL acute rabbit [5]: 7.5 mg/kg
NOAEL 2 week mice clinical ([6]; intravenous once daily on days 1 to 5 and 8 to 12, clinical findings): >32 mg/kg
NOAEL 2 week mice histological ([6]; intravenous once daily on days 1 to 5 and 8 to 12, histopathologic (kidney) findings): >32 mg/kg
ED50 mice 7 day [7]: 8.3 mg/kg
acute, nephro- and hepato-toxicity versus amphotericin B [8]: lower acute, nephro- and hepato-toxicity than amphotericin B
ED50 mice 5 day [9]: 13.1 mg/kg

CC1[C@H](C)OC(=O)C[C@H](O)C[C@H](O)CC[C@@H](O)[C@H](O)C[C@H](O)C[C@]2(O)C[C@H](O)C(C(=O)NCCCN3CCOCC3)C(C[C@@H](OC3O[C@H](C)[C@@H](O)[C@H](NC[C@@]4(O)OC[C@@H](O)[C@@H](O)[C@@H]4O)[C@@H]3O)/C=C/C=C/C=C/C=C/C=C/C=C/C=C/[C@H](C)[C@H]1O)O2 (stereo partly shown) [Compound 104]
MIC [3, 10]: 2 µg/mL (≈ 1.65 µM)
NLD acute mice [4]: 20 mg/kg
NOAEL at 2 week ([6]; NOAEL 2 week mice clinical): 10 mg/kg
NOAEL at 2 week ([6]; NOAEL 2 week mice histological): < 10 mg/kg
ED50 [7]: 3.1 mg/kg
ED50 [9]: 9 mg/kg

CC1[C@H](C)OC(=O)C[C@H](O)C[C@H](O)CC[C@@H](O)[C@H](O)C[C@H](O)C[C@]2(O)C[C@H](O)C(C(=O)NCCN3CCCCC3)C(C[C@@H](OC3O[C@H](C)[C@@H](O)[C@H](NC[C@@]4(O)OC[C@@H](O)[C@H](O)[C@@H]4O)[C@@H]3O)/C=C/C=C/C=C/C=C/C=C/C=C/C=C/[C@H](C)[C@H]1O)O2 (stereo partly shown) [Compound 114]
MIC [3, 10]: 4 µg/mL (≈ 3.34 µM)
NLD acute mice [4]: 40 mg/kg
NOAEL at 2 week ([6]; NOAEL 2 week mice clinical): 9 mg/kg
NOAEL at 2 week ([6]; NOAEL 2 week mice histological): 9 mg/kg
ED50 [7]: 6.1 mg/kg
ED50 [9]: 9 mg/kg
